We go through eight molecules from US20040191902A1, “Growth and differentiation of stem cells” (Pfizer Inc, priority 2003, published 2004).

Data set [1] deals with CYP3a, CYP2d, CYP2e1 and CYP1a2 in hepatocyte-like cells. Briefly: Conversion of test compounds by hepatocyte-like cells (HPLC and mass spectrometry of supernatants). The procedure:
The presence of CYP proteins in the hepatocyte-like cells was also determined by monitoring the conversion of certain compounds added to the hepatocyte-like cells. Two test compounds (7-ethoxy-coumarin and dextromethorphan) were added to hepatocyte-like cells. The supernatants of the cells were then subjected to high pressure liquid chromatography (HPLC) and mass spectrometry to identify products of the conversion of the test compounds by CYP3a, CYP2d, CYP2e1 and CYP1a2.

Another data set concerns hepatocyte-like cells. Briefly: Dibenzylfluorescein (DBF) assay for metabolic activity of hepatocyte-like cells. It counts as in vitro ADME, mouse. The note with it: hepatocyte-like cells differentiated in presence or absence of HPO. The method, then:
Another test that was used to characterize the hepatocyte-like cells is the dibenzylfluorescein (DBF) assay for metabolic activity. See, for example, Stresser et al., Drug Metab. Disp., 28:1440-48 (2000). These assays were conducted using a DBF compound (Molecular Probes, Eugene Oreg.) according to the manufacturer's recommendations.

In the next data set the test system is 4MBr-5 cell line. The note with it: 3H-thymidine incorporation, typical range; cited from earlier work.
The test system of another data set is TF-1 cell line. The note with it: proliferation of TF-1; typical range; cited from earlier work.
A further data set has as its system Balb/3T3 cell line. The note with it: 3H-thymidine incorporation, typical range; cited from earlier work.
Data set [2] has as its system cells differentiating from ES cells into hepatocyte-like cells. Briefly: In vitro differentiation of mouse ES cells into hepatocyte-like cells with hepatopoietin added to the media. In kind it is cell-based. The procedure:
Mouse ES cells were differentiated into hepatocyte-like cells as described above, with the addition of 50 ng/ml mouse hepatopoietin protein to the HepII, HepIII and/or HepIV media. The mouse hepatopoietin protein consisted of a portion of the wild-type protein, which portion has the amino acid sequence set forth in SEQ ID NO: 16.
The presence of hepatopoietin in either medium had this effect, but the strongest effect was seen when it was included in all three media, i.e., during the middle stage, the late stage and the maturation and selection stage. In this case, it appeared that over 90% of the cells in the culture were hepatocyte-like cells.

The subject of the next data set is NIH/3T3 cells. The following applies: 3H-thymidine incorporation, quiescent NIH/3T3; typical range; cited from earlier work.

As to `CCOc1ccc2ccc(=O)oc2c1` [7-ethoxy-coumarin], in data set [1] (hepatocytes), the “conversion products by CYP3a, CYP2d, CYP2e1 and CYP1a2” value is listed as “expected conversion products were obtained”. Consider `O=C(OCc1ccccc1)c1ccccc1-c1c2ccc(=O)cc-2oc2cc(OCc3ccccc3)ccc12` [DBF, dibenzylfluorescein], for which the “DBF assay for metabolic activity” value in the data set on hepatocyte-like cells is given as “positive”.

Take `COc1ccc2c(c1)[C@]13CCCC[C@@H]1[C@H](C2)N(C)CC3` [dextromethorphan]: the “conversion products by CYP3a, CYP2d, CYP2e1 and CYP1a2” value in data set [1] (added to hepatocyte-like cells, supernatants by HPLC and mass spectrometry) is “expected conversion products were obtained”. For the molecule “human recombinant HGF: human recombinant hepatocyte growth factor”, the ED50 with 4MBr-5 cell line was 20 to 40 ng/mL. As for “human recombinant OSM: human recombinant oncostatin M”, the ED50 in the data set on TF-1 cell line is 0.1 to 3 ng/mL. On to “human recombinant aFGF: human recombinant acidic fibroblast growth factor”, for which the ED50 in the data set with Balb/3T3 cell line is 2 to 10 ng/mL.

In the case of “mouse HPO: portion of wild-type mouse hepatopoietin, 125 amino acids, SEQ ID NO: 16, produced in E. coli”, the “proliferation of cells giving rise to hepatocyte-like cells” value in data set [2] (50 ng/ml in HepII, HepIII and/or HepIV media) is given as “stimulates the proliferation”. In data set [2] (50 ng/ml included in all three media (middle, late, maturation and selection stages)), the “cells in the culture that were hepatocyte-like cells” value is listed as “over 90%”.

B1: mouse recombinant OSM: mouse recombinant oncostatin M (protein, UniProt P53347 25-206, looked up)
Oncostatin-M: NRGCSNSSSQLLSQLQNQANLTGNTESLLEPYIRLQNLNTPDLRAACTQHSVAFPSEDTLRQLSKPHFLSTVYTTLDRVLYQLDALRQKFLKTPAFPKLDSARHNILGIRNNVFCMARLLNHSLEIPEPTQTDSGASRSTTTPDVFNTKIGSCGFLWGYHRFMGSVGRVFREWDDGSTRSRR
Take B1: the ED50 in the data set with NIH/3T3 cells is 2 to 4 ng/mL.
